Results as given in ChEMBL document CHEMBL1152037, “Novel peptidomimetics: inhibitors of substance P endopeptidase” (Bioorg Med Chem Lett, 1992).
Peptide text beside a SMILES is read from it. * marks the point of attachment. X1 = CSCC[C@H](NC(=O)[C@H](CC(C)C)NC(=O)CNC(=O)C(/C=C/[C@H](Cc1ccccc1)N*)(Cc1ccccc1)Cc1ccccc1)C(N)=O

How the values were obtained:
[1] = Ability to inhibit substance P endopeptidase at concentration of 1.5 uM
[2] = Ability to inhibit substance P endopeptidase at concentration of 10 uM

| SMILES | inhibition [1] [%] | inhibition [2] [%] |
| --- | --- | --- |
| N[C@H](/C=C/C(CO)(Cc1ccccc1)Cc1ccccc1)Cc1ccccc1 | 50 | – |
| CSCC[C@H](NC(=O)[C@H](CC(C)C)NC(=O)CNC(=O)C(/C=C/[C@H](Cc1ccccc1)NC(=O)[C@H](CCC(N)=O)NC(=O)[C@H](CCC(N)=O)NC(=O)[C@@H]1CCCN1C(=O)[C@H](CCCCN)NC(=O)[C@@H]1CCCN1C(=O)[C@@H](N)CCCN=C(N)N)(Cc1ccccc1)Cc1ccccc1)C(N)=O (H-RPKPQQ-X1) | – | 50 |
